Results taken from ChEMBL document CHEMBL1137902, “N-Sulfonyl homoserine lactones as antagonists of bacterial quorum sensing” (Bioorg Med Chem Lett, 2004).

Tested on: Aliivibrio fischeri
Experiment: Tested for the ability to interfere with the induction of luminescence by N-3-oxohexanoyl-L-homoserine lactone in the Vibrio fischeri QS system
Format: functional, organism-based

Structure (SMILES)	IC50 [µM]
CCCCCCS(=O)(=O)NC1CCOC1=O (centres undefined)	6.5
O=C1OCCC1NS(=O)(=O)CCCc1ccccc1 (centres undefined)	20
CCCCCS(=O)(=O)NC1CCOC1=O (centres undefined)	2
O=C(CCCc1ccccc1)NC1CCOC1=O (centres undefined)	2
CCCCCCCS(=O)(=O)NC1CCOC1=O (centres undefined)	9
O=C(CC(=O)NC1CCOC1=O)Cc1ccccc1 (centres undefined)	2
CCCCCCCCS(=O)(=O)NC1CCOC1=O (centres undefined)	10
O=C1OCCC1NS(=O)(=O)CCc1ccccc1 (centres undefined)	3
CCCCS(=O)(=O)NC1CCOC1=O (centres undefined)	12
